Measured values: US10456377B2, “Anesthetic comprising tetracaine and a vasoconstrictor for administration to a subject” (St. Renatus, LLC, priority 2009, dated 2019)
Where a name gives a salt, the structure may show the parent alone.

Tested on: maxillary dentition
Assay: Intranasal tetracaine HCl solution, anesthesia of the maxillary dentition by electric pulp testing (EPT)
Type: in vivo, human
Conditions: nasal spray, tetracaine doses between 4 and 16 mg, 80 subjects
Description: The purpose of this study was to identify an effective and safe dosage of an intranasally administered tetracaine hydrochloride solution for obtaining anesthesia of the maxillary dentition. Healthy human volunteers were administered a dose of tetracaine HCl delivered as a nasal spray using a BD Accuspray™ device. The administration of the local anesthetic varied by total dose, concentration, and volume, and it included single doses in a single nostril, split doses in the same nostril, and divided doses in both nostrils. Different techniques regarding direction of spray were also investigated.
The efficacy of tetracaine hydrochloride in 80 subjects was measured by monitoring pain levels via electric pulp testing (EPT). EPT testing was accomplished by passing a current through the tooth to be tested wherein the lowest level of current is a “0” and the highest level of current is an “80.” Subjects are exposed to an increasing amount of current (starting at 0 and ramping up to 80). If any pain was felt by the subject, the test was stopped and the EPT reading was recorded.
Subjects received tetracaine doses between 4 and 16 mg.

## CCCCNc1ccc(C(=O)OCCN(C)C)cc1 [tetracaine HCl, 2-(dimethylamino)ethyl 4-(butylamino)benzoate]
  maxillary arch anesthesia, as indicated by an EPT score of 80: did not result in maxillary arch anesthesia
